According to US8791155B2, “Chroman derivatives” (Edison Pharmaceuticals, Inc., priority 2003, dated 2014):

Assays:
Assay type in all cases: cell-based
FRDA fibroblasts = assay: FRDA fibroblast assay for protection from oxidative stress (BSO); conditions: Homo sapiens, preincubation 24 h before 1 mM BSO, read-out: EC50, reduced cell death in FRDA fibroblasts compared to untreated FRDA fibroblasts
Source text: A cellular assay using FRDA-patient derived fibroblasts (as described by Jauslin, M L et al, Human Molecular Genetics 11; 3055-3063 (2002)); was used to determine the protective effects of the test compounds by analyzing survival of dermal fibroblasts taken from FRDA patients and unaffected normal donors under conditions of partial GSH depletion. Exposure of FRDA fibroblasts to BSO (L-buthionine (S,R)-sulfoximine) under conditions of restricted selenium causes depletion of cellular glutathione (GSH) and severe plasma membrane damage leading to cell death. Preincubation with the test compounds before the addition of BSO was used to determine if they could protect FRDA cells from BSO-mediated cell death.
Primary fibroblasts were derived from donors with a molecular diagnosis of FRDA and control donors with no mitochondria) disease. Lines F2, C2 and C3 were obtained from Coriell Cell Repositories (Camden, N.J., USA; catalog nos GM04078, GM 08402 and GM08399, respectively). All cell types were diagnosed at the molecular level for intronic GAA triplet repeat length in the frataxin gene using a PCR-based method, according to methods known in the art. […] The cells were seeded in 96-well plates at a density of 4000 cells per 100 pI in growth medium consisting of 25% (v/v) M199 EBS and 64% (v/v) MEM EBS without phenol red (Bioconcept, Allschwil, Switzerland) supplemented with 10% (v/v) fetal calf serum (PAA Laboratories, Linz, Austria), 100 U/ml penicillin, 100 μg/ml streptomycin (PAA Laboratories, Linz, Austria), 10 μg/ml insulin (Sigma, Buchs, Switzerland), 10 ng/ml EGF (Sigma, Buchs, Switzerland), 10 ng/ml bFGF (PreproTech, Rocky Hill, N.J., USA) and 2 mM glutamine (Sigma, Buchs, Switzerland). The cells were incubated in the presence of the various test compounds for 24 h before addition of 1 mM BSO (L-buthionine (S,R)-sulfoximine).
Cell viability was measured after the first signs of toxicity appeared in the BSO-treated controls (typically after 16-48 h). The cells were stained for 60 min at room temperature in PBS with 1.2 μm calceinAM and 4 pm ethidium homodimer (Live/Dead assay, Molecular Probes, Eugene, Oreg., USA). Fluorescence intensity was measured with a Gemini Spectramax XS spectrofluorimeter (Molecular Devices, Sunnyvale, Calif., USA) using excitation and emission wavelengths of 485 and 525 nm, respectively.

[1] = tested on: dopaminergic neuronal cell line; assay: High glutamate-induced oxidative stress assay (HGOS); conditions: Mus musculus; 30 mM glutamate, 16 hrs; read-out: EC50, protection against HGOS cell injury and cell death
Source text: Protection against redox stress can be evaluated in cell culture using high glutamate induced oxidative stress (HGOS) in mouse dopaminergic cell lines. The cytotoxic effect of glutamate is not due to excitotoxicity, as this cell line is devoid of inotropic glutamate receptors. Rather, the glutamate-induced toxicity of dopaminergic cells is associated with an inhibition of cystine transport which subsequently leads to depletion of intracellular glutathione (GSH) levels (Murphy T. H., et al. Neuron 2, 1547-1558, 1989), activation of neuronal 12-lipoxygenase (Li, Y. et al., Neuron 19, 453-463, 1997), increased ROS production (Tan S. et al., J. Cell Biol. 141, 1423-1432, 1998) and elevated intracellular Cat^2+ (Li, Y. et al., see supra). Some molecules were measured for their ability to protect cells against glutamate-induced stress and the assay is detailed in Examples.
This procedure was used to induce high glutamate-induced oxidative stress (HGOS) in a dopaminergic neuronal cell line. Using this assay the potency and efficacy of test articles against HGOS neuronal cell injury and cell death was established in a high throughput manner.
• Dopaminergic neuronal cell lines • DMEM-No Glucose (Life Technologies Cat #11966-025) • L-glutamine (Life Technologies Cat #25030-081) • L-glutamic acid, monosodium salt (Sigma Cat #G5889) • D-glucose (Sigma Cat #G-6151) • 10×HBSS buffer (pH 7.4) (950 ml Pyrogen-free water, 2.44 g/L MgCl2.6H20, 3.73 g/L KCl, 59.58 g/L Hepes, 58.44 g/L NaCl, 1.36 g/L KH2PO4, 1.91 g/L CaCl2.2H2O and pH to […] with HCl) • Cell Tracker Green fluorescent dye (Molecular Probes, Cat #2925). Prepare a 5NM solution in pre-warmed HBSS just prior to use. • Sterile 96-well plates precoated with poly-D-lysine (Corning Catalog #3665) • 96-well deep well mother plate, DyNA Block 1000 (VWR Catalog #40002-008) Neuronal Cells
The cells were seeded into 96-well plates at a density of 2000 per well and left to grow for 72 hours in a 33° C. incubator with 5% CO2 in air atmosphere. The passage number of the cells for each assay experiment were no later than p11 in order to minimize experimental variation.
All compounds were dissolved in DMEM-No Glu containing 1 mM glucose, 30 mM glutamate and 1× Pen/Strep. DMEM-No Glu with 1 mM glucose and 1× P/S was used as the negative control, DMEM-No Glucose with 1 mM glucose, […] glutamate was used as a positive control and 100 NM Glutathione was added to the positive control as a standard. All of the procedures for this involving the making and dilution of compounds were performed using aseptic conditions and with minimal light.
The plates were removed from the incubator and examined under the microscope for morphological appearance and density. Using an aseptic technique and an 8-channel aspirator the media was carefully removed from the cells and replaced with 200 μI of 1×HBSS. This was done as quickly as possible to prevent the cells drying out. The plates were then placed in the humidified 37° C. incubators of the Biomek 2000 Side Loader. Four plates were washed at a time so as to minimize the time that the cells were sitting in 1×HBSS prior to addition of the compound test solution. Experimental Setup
The Beckman Biomek workstations were used to load the compounds and controls from the mother plates onto the cell plates that were prewashed with HBSS under sterile conditions. The plates were incubated in the upper HTS incubator at 37° C. in 5% CO2 for exactly 16 hrs. The following day, using the Beckman Biomek workstations, the plates were removed from the incubator. Using Cell Tracker Addition, the compounds were removed from the plates, washed once with […] of pre-warmed 1×HBSS and then 100 μL of 5 μM Cell Tracker Green was added to each well. The plates were incubated at 37° C. for 30 min to allow the dye to enter the cell and be cleaved by the esterases. […]

[2] = tested on: IL-1β release from a mouse microglial cell line; assay: Interleukin-1β microglial cell assay (LPS / IFN gamma); conditions: LPS (10 μg/ml) and IFN gamma (10 ng/ml), 24 hours, read-out: EC50, inhibition of IL-1 beta induction
Description: This assay measures the release of IL-1β from a mouse microglial cell line following an inflammatory challenge with LPS and interferon-gamma. The ability of test articles to inhibit microglial cell activation and IL-1β release is determined by co-incubation of the test article with the inflammatory challenge.
Mouse microglial cells were seeded in poly-D-lysine coated 96-well plates at a density of 10,000 cells/well and allowed to attach for 24 hours. Cells were stimulated by addition of LPS (10 μg/ml) and IFN gamma (10 ng/ml) in the presence or absence of test article. The cells were then incubated for 24 hours at 37° C., after which time the media was removed and used for cytokine determination as described below.
Viability of mouse microglial cells after exposure to the test article was determined using a fluorescent viability dye, Cell Tracker Green. Cell Tracker Green was used at a working concentration of 5 μM in 1×HBSS. Cells were washed once with HBSS (200 μl/well) and 100 μl Cell Tracker Green was added to each well. Cells were then incubated at 37° C. for 30 minutes, after which time the Cell Tracker was removed and the cells were washed once with HBSS (200 μl/well). 100 pl fresh HBSS was added to each well and the plate was read on a Fluoroskan plate reader using an excitation wavelength of 485 nm and an emission wavelength of 538 nm.
1. […]
• The Costar EIA Hi-binding plate was coated with capture antibody at 4 μg/ml. […] Each well was filled to the top, dispensed, and any remaining buffer was removed by inverting the plate and gently blotting against clean paper towels. • Non-specific binding sites were blocked by adding 300 μl of Blocking Buffer to each well, and after sealing incubating for at least 1 hour at room temperature. • After washing the plate was now ready for the samples. […] 100 μl of this Substrate Solution mixture was added to each well and the plate was incubated in the dark for 20 minutes at room temperature. • 50 μl of Stop Solution was added to each well, mixing was ensured by gently tapping. • Each plate was read with the Spectramax once at 450 nm. […]

CCCCCCSCc1c(O)c(C)c(C)c2c1CCC(C)(C)O2 [5-Hexylsulfanylmethyl-2,2,7,8-tetramethyl-chroman-6-ol] was tested, and the EC50 (FRDA fibroblasts) was 0.01 to 6 µM and the EC50 [1] was under 5 µM.
With Cc1cc(C)nc(SCc2c(O)c(C)c(C)c3c2CCC(C)(C)O3)n1 [5-(4,6-Dimethyl-pyrimidin-2-ylsulfanylmethyl)-2,2,7,8-tetramethyl-chroman-6-ol] the EC50 [2] was at most 20 µM and the EC50 [1] was under 5 µM.
Cc1c(C)c2c(c(CSC3CCCC3)c1O)CCC(C)(C)O2 [5-Cyclopentylsulfanylmethyl-2,2,7,8-tetramethyl-chroman-6-ol] showed an EC50 (FRDA fibroblasts) of 0.01 to 6 µM and an EC50 [1] of under 5 µM.
Work on Cc1c(C)c2c(c(CSCC(C)C(=O)N3CCCC3C(=O)O)c1O)CCC(C)(CCCC(C)CCCC(C)CCCC(C)C)O2 (centres unmarked) [1-{3-[6-Hydroxy-2,7,8-trimethyl-2-(4,8,12-trimethyl-tridecyl)-chroman-5-ylmethylsulfanyl]-2-methyl-propionyl}-pyrrolidine-2-carboxylic acid] yielded an EC50 (FRDA fibroblasts) of 0.01 to 6 µM and an EC50 [1] of under 5 µM.
